Assay results taken from patent US5776970A, “Tryptophan derivatives as protein tyrosine kinase blockers and their use in the treatment of neoplastic diseases” (Yeda Research and Development Co. Ltd., priority 1994, dated 1998).

Tests used:
[1] = tested on: isoproterenol-mediated lipolysis; test: isoproterenol-mediated lipolysis in rat adipocytes (glycerol release); format: cell-based; details: isoproterenol 1 μM alone
Experimental: In general there are two classes of protein kinases (PKs) in mammalian tissues: (a) PKs which phosphorylate tyrosine moieties in proteins (to phosphotyrosine), and (b) PKs which phosphorylate serine and threonine moieties (to phosphoserine and phosphotreonine). […] An example for such a metabolic effect is lipolysis which depends on protein kinase A. Rat adipocytes (prepared by the method of Rodbell, 1964) were incubated with isoproterenol alone (1 μM) or isoproterenol with CBZ-DNPS-TRP-TAU (200 μM) for one hour at 37° C. The amount of glycerol released from the cells was then determined by spectroscopic procedure (Shechter, 1982).

[2] = tested on: rat adipocytes; test: permeability into cell interiors (intact cell system, lipogenesis); format: cell-based; details: graded in words
Experimental: Rat adipocytes were prepared essentially by the method of Rodbell, 1964. The fat pads of three rats were cut into small pieces with scissors and digested in 3 ml of Krebs-Ringer-Bicarbonate (KRB)-buffer containing 0.7% bovine serum albumin (BSA) (pH 7.4) with collagenase (1 mg/ml). The digestion was performed in a 25 ml flexible plastic bottle under an atmosphere of carbogen (95% O2, 5% CO2) for 40 min at 37° C. with vigorous shaking. Five ml of buffer was then added, and the cells were squeezed through a mesh screen. The cells were then allowed to stand for several minutes (in a 15 ml plastic test tube at room temperature, floating) and the buffer underneath was removed. This procedure (suspension, floating and removal of buffer underneath) was repeated three times. For [^14 C-U]glucose incorporation (lipogenesis), the fat cell suspensions (3×10^5 cells/ml) were divided into plastic vials (0.5 ml per vial) and incubated for 60 min at 37° C. under an atmosphere of 95% O2, 5% CO2, with 0.2 mM [U-^14 C]glucose, in either the presence or absence of insulin (100 ng/ml) and the indicated concentrations in FIG. 2 of CBZ-DNPS-TRP-TAU. The reaction was terminated by adding toluene-based scintillation fluid (1.0 ml per vial) and the extracted lipids were counted (Shechter and Karlish, 1980). Fat cell suspensions were pre-incubated for 20 min at 37° C. with increasing concentrations of the inhibitors. Results are expressed in FIG. 2 as the percent of maximal stimulation at the indicated concentrations of inhibitors. In all experiments insulin-stimulated lipogenesis was 4- to 5-fold higher than basal; basal ~2000 cpm per 3×10^5 cells/h; Vinsulin 8000-10,000 cpm per 3×10^5 cells/h.
(§1) Various derivatives according to the invention in which R^1 is benzyloxycarbonyl (CBZ) or t-butoxycarbonyl (t-Boc), R^2 is --SO3 H or --PO3 H, n is 1,2 or 3, and R^3 is H, 2-nitrophenylthio (NPS) or 2,4-dinitrophenylthio (DNPS) were prepared and examined in cell-free and intact cell systems. The cell-free assay is PolyGlu4 Tyr phosphorylation by partially purified insulin receptor as described in Example 3. The assay in intact cells (namely, lipogenesis) was carried out as described in Example 4.

[3] = biological target: T1, insulin receptor tyrosine kinase (InsRTK) (Rattus norvegicus, UniProt P15127); test: PolyGlu4 Tyr phosphorylation by partially purified (wheat-germ-agglutinin purified) rat liver insulin receptor, cell-free; format: biochemical; design: wheat-germ-agglutinin purified rat liver insulin receptor; from tissue; host or cells: rat liver (wheat-germ-agglutinin purified); details: for Relative cell-free potency in inhibiting InsRTK: CBZ-DNPS-TRP-Taurine 100
Experimental: An assay of PolyGlu4 Tyr phosphorylation by partially purified insulin receptor was run for 30 min at 22° C. in 60 μl of 50 mM Hepes (pH 7.4)-0.1% Triton X-100 containing wheat-germ-agglutinin purified rat liver insulin receptor (1 μg protein), MgCl2 25 mM; MnCl2, 1 mM, ATP 17 μM, insulin 0.1 μM, PolyGlu4 Tyr, 0.17 mg/ml and the indicated concentrations in FIG. 1 of CBZ-DNPS-TRP-TAU. Phosphotyrosine content in PolyGlu4 Tyr was determined by a radioimmunoassay procedure (Shisheva et al., 1991). […] The inhibitory potency of other derivatives of formula I on InsRTK-catalyzed PolyGlu4 Tyr phosphorylation in cell-free experiments was determined. […] For comparison, the IC50 values for AC-TRP-TAU and L-tryptophan are 5 mM and >30 mM, respectively.
as §1
Target sequence in this assay (P15127 764-1383 limits assumed): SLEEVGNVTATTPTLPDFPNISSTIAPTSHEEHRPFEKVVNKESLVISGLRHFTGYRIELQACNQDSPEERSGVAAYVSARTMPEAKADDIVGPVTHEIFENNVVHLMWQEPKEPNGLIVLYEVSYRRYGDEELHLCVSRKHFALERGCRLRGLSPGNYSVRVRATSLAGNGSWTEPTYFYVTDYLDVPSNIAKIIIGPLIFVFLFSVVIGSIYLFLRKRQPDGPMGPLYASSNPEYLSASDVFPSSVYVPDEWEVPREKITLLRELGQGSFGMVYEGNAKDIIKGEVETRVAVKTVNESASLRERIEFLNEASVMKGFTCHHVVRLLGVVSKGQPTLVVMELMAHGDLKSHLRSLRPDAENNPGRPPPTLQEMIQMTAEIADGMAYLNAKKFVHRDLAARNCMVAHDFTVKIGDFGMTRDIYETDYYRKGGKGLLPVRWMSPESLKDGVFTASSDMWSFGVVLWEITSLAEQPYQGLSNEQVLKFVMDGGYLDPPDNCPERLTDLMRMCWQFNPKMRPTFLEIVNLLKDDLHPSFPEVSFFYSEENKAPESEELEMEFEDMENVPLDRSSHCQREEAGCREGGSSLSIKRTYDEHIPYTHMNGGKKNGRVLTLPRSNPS
Target sequence in this assay (P15127 27-759 partner limits assumed): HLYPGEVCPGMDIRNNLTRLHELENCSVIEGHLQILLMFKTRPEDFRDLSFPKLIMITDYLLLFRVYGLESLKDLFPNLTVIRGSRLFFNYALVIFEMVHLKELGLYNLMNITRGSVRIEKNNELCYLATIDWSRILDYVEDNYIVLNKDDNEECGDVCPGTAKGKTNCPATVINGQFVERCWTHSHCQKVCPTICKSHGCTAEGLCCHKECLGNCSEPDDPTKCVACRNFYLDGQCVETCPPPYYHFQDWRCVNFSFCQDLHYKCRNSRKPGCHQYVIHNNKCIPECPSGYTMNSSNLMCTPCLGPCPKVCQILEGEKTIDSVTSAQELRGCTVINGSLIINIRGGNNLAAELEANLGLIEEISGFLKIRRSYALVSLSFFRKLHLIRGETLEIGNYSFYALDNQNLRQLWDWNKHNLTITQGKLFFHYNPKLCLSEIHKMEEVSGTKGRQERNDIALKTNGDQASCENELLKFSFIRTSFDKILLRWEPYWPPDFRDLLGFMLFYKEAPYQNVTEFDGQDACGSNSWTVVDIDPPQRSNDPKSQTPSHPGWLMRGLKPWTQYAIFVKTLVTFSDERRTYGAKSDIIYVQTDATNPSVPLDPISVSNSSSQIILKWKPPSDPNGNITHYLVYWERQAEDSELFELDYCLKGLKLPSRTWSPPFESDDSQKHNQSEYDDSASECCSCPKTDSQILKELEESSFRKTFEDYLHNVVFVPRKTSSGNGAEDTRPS

[4] = biological target: T1, insulin receptor tyrosine kinase (InsRTK); test: inactivation of InsRTK by affinity reagent; format: biochemical; details: covalent affinity reagent
Source text: Thus, to design and synthesize a low molecular weight blocker of InsRTK able to permeate into cell interiors, we first searched for an affinity reagent that would covalently bind and inactivate the InsRTK at low concentrations. […] The complementary hydrophilic domain of the InsRTK contains a lysine moiety that reacts covalently with the active ester and is likely to participate in substrate binding or catalysis. Equipped with this information we have synthesized a family of competitive inhibitors.
Target sequence in this assay (P15127 27-1383): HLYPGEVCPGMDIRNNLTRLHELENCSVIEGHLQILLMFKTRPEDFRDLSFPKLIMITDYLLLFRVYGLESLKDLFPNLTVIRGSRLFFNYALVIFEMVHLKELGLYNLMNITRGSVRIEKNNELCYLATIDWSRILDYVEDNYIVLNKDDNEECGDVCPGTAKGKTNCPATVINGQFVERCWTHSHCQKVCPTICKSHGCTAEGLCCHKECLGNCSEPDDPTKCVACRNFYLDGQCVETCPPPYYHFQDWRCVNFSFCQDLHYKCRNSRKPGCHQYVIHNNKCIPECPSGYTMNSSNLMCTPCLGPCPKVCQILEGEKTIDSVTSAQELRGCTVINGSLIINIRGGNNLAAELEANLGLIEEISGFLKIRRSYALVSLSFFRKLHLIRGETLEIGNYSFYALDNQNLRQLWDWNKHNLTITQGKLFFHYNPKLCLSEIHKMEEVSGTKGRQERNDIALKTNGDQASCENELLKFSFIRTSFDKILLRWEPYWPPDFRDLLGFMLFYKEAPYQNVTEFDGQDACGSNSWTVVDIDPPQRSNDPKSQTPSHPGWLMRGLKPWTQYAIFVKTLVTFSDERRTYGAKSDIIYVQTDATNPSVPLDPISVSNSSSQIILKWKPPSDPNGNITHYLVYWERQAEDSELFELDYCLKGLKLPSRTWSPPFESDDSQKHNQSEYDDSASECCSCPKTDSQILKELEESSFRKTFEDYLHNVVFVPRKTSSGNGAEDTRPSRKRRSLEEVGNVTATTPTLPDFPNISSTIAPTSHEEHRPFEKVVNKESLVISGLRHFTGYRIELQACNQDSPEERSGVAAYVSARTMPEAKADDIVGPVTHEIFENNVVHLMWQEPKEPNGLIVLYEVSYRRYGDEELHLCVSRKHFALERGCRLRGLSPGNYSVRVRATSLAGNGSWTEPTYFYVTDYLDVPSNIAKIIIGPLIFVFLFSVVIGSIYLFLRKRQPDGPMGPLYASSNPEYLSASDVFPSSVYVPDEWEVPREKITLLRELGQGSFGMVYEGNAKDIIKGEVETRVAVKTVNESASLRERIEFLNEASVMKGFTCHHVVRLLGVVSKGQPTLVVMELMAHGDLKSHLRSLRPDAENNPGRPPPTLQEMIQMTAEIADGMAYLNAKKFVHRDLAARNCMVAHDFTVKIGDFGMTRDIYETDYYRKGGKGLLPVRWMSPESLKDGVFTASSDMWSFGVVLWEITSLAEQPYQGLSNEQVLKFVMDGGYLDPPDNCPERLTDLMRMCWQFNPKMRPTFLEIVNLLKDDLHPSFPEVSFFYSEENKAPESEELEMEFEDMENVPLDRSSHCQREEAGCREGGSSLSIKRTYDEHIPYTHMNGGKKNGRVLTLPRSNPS

[5] = solubility; details: water
[6] = tested on: insulin-stimulated lipogenesis in rat adipocytes; test: insulin-stimulated lipogenesis in rat adipocytes ([U-14C]glucose incorporation); format: cell-based; details: insulin 100 ng/ml
Experimental: The fat pads of three rats were cut into small pieces with scissors and digested in 3 ml of Krebs-Ringer-Bicarbonate (KRB)-buffer containing 0.7% bovine serum albumin (BSA) (pH 7.4) with collagenase (1 mg/ml). […] Five ml of buffer was then added, and the cells were squeezed through a mesh screen. The cells were then allowed to stand for several minutes (in a 15 ml plastic test tube at room temperature, floating) and the buffer underneath was removed. This procedure (suspension, floating and removal of buffer underneath) was repeated three times. […] Fat cell suspensions were pre-incubated for 20 min at 37° C. with increasing concentrations of the inhibitors. Results are expressed in FIG. 2 as the percent of maximal stimulation at the indicated concentrations of inhibitors.

[7] = tested on: murine T-cell lymphoma (LB3); test: insulin-dependent proliferation of murine T-cell lymphoma (LB3), thymidine incorporation; format: cell-based; details: 30,000 LB3 cells; insulin or other mitogens
Experimental: LB cells were removed from the peritoneal cavity of BALB/c mice, washed and resuspended in RPMI-1640. Then a continuous line designated LB3 was established in "LB medium" (50% RPMI-1640 plus 50% DCCM-1 in 10% fetal calf serum (FCS)). The LB3 cells were incubated (37° C., 5% CO2) in microplate wells (Nunc, Roskilde, Denmark) with 0.2 ml RPMI-1640 alone and in the same medium containing insulin, fetal calf serum (FCS) or both, and different concentrations of the compound CBZ-DNPS-TRP-TAU as indicated in FIG. 3. Proliferation capacity was determined by thymidine incorporation (^3 H-TdR, 1 μCi/well, specific activity 5 Ci/mM), added to the cells 24 hours later. In a typical experiment, cpm of ^3 H-thymidine incorporated into 30,000 cells was 12-14 fold higher in the presence of insulin or other mitogens than in their absence.

[8] = cell-free, 30 min, 22° C., pH 7.4, ATP 17 μM, insulin 0.1 μM, read-out: IC50 value, InsRTK-catalyzed PolyGlu4 Tyr phosphorylation

Row | Molecule | Permeability into cell interiors [2] | Relative cell-free potency in inhibiting InsRTK [3] | also measured
1 | CC(C)NCC(O)c1ccc(O)c(O)c1 (centres unmarked) [Isoproterenol, isoproterenol, reference compound] |  |  | activity at 1 µM ([1]; Rattus norvegicus, Adipocyte, read-out: Percent lipolysis): 100%; Amount of glycerol released [1]: 165 nmol/3 × 10^5 cells/3 h
2 | CC(C)(C)OC(=O)N[C@@H](Cc1c(Sc2ccc([N+](=O)[O-])cc2[N+](=O)[O-])[nH]c2ccccc12)C(=O)NCCCS(=O)(=O)O [tBoc-DNPS-TRP-aminopropyl-SO3, tBoc-DNPS-TRP-aminopropylsulfonic acid] | excellent | 90% | 
3 | CC(=O)N[C@@H](Cc1c[nH]c2ccccc12)C(=O)NCCS(=O)(=O)O [AC-TRP-TAU, reference compound] |  |  | IC50 [3, 8]: 5 mM
4 | O=C(NC(Cc1ccccc1)C(=O)ON1C(=O)CCC1=O)OCc1ccccc1 (centres unmarked) [CBZ-Phe-OSU, benzyloxycarbonylphenyl-N-hydroxysuccinimide ester] |  |  | IC50 [4]: 0.05 mM
5 | O=C(N[C@@H](Cc1c[nH]c2ccccc12)C(=O)NCCS(=O)(=O)O)OCc1ccccc1 [CBZ-TRP-TAU] | poor | 20% | solubility [5]: ≤ 1300 mM; IC50 [3, 8]: 2.7 mM
6 | O=C(O)CC(NC(=O)[C@H](Cc1c(Sc2ccc([N+](=O)[O-])cc2[N+](=O)[O-])[nH]c2ccccc12)NC(=O)OCc1ccccc1)C(=O)O (some centres unmarked) [CBZ-DNPS-TRP-Aspartic Acid] | good | 5% | 
7 | O=C(N[C@@H](Cc1c(Sc2ccc([N+](=O)[O-])cc2[N+](=O)[O-])[nH]c2ccccc12)C(=O)NCS(=O)(=O)O)OCc1ccccc1 [CBZ-DNPS-TRP-aminomethyl-SO3, CBZ-DNPS-TRP-aminomethylsulfonic acid] | excellent | 90% | 
8 | insulin |  |  | Vinsulin (lipogenesis) [6]: 8000-10,000 cpm per 3×10^5 cells/h; 3H-thymidine incorporation in presence vs absence of insulin [7]: 12-14 fold
9 | O=C(N[C@@H](Cc1c(Sc2ccc([N+](=O)[O-])cc2[N+](=O)[O-])[nH]c2ccccc12)C(=O)NCCCS(=O)(=O)O)OCc1ccccc1 [CBZ-DNPS-TRP-aminopropyl-SO3, CBZ-DNPS-TRP-aminopropylsulfonic acid] | excellent | 70% | 
10 | CC(C)(C)OC(=O)N[C@@H](Cc1c(Sc2ccc([N+](=O)[O-])cc2[N+](=O)[O-])[nH]c2ccccc12)C(=O)NCCS(=O)(=O)O [tBoc-DNPS-TRP-Taurine, tBoc-DNPS-TRP-aminoethylsulfonic acid] | excellent | 95% | 
11 | O=C(N[C@@H](Cc1c[nH]c2ccccc12)C(=O)NCCCS(=O)(=O)O)OCc1ccccc1 [CBZ-TRP-β-TAU] |  |  | IC50 [3, 8]: 3.5 mM
12 | O=C(N[C@@H](Cc1c(Sc2ccccc2[N+](=O)[O-])[nH]c2ccccc12)C(=O)NCCS(=O)(=O)O)OCc1ccccc1 [CBZ-NPS-TRP-TAU] | good | 30% | IC50 [3, 8]: 0.55 mM
13 | CC(C)(C)OC(=O)N[C@@H](Cc1c(Sc2ccc([N+](=O)[O-])cc2[N+](=O)[O-])[nH]c2ccccc12)C(=O)NCS(=O)(=O)O [tBoc-DNPS-TRP-aminomethyl-SO3, tBoc-DNPS-TRP-aminomethylsulfonic acid] | excellent | 80% | 
14 | CC(C)CC(NC(=O)OCc1ccccc1)C(=O)NCCS(=O)(=O)O (centres unmarked) [CBZ-leucine-Taurine, reference compound] | poor | 2% | 
15 | N[C@@H](Cc1c[nH]c2ccccc12)C(=O)O [L-tryptophan, reference compound] |  |  | IC50 [3]: > 30 mM
16 | CC(=O)N[C@@H](Cc1c(Sc2ccc([N+](=O)[O-])cc2[N+](=O)[O-])[nH]c2ccccc12)C(=O)NCCS(=O)(=O)O [Acetyl-DNPS-TRP-Taurine] | poor | 80% | Permeability into cell interiors ([2]; listed as acetyl-DNPS-TRP-TAU): low permeability; inhibition of InsRTK in words ([3]; cell-free experiments): inhibits InSRTK
17 | O=C(N[C@@H](Cc1c[nH]c2ccccc12)C(=O)NCP(=O)(O)O)OCc1ccccc1 [CBZ-TRP-aminomethyl-PO3] | poor | 5% | 
